Values joined by “and” are separate entries in the source; they are usually repeats but may differ in a detail not shown here. Equal entries are not always repeated.
Legend:
[1] = tested on: metastatic pancreatic cancer; test: Phase I study of Compound 1 with nab-paclitaxel and gemcitabine, preliminary results; format: in vivo, human; settings: 600 mg daily dosage of Compound 1 in combination with nab-paclitaxel and gemcitabine; after 3rd cycle (8 weeks treatment); individual patients
Source text: This is a single-arm, open-label, multi-center Phase I study of Compound 1 in combination with nab-paclitaxel and gemcitabine in first line treatment naïve subjects with Stage IV metastatic pancreatic carcinoma.
The first part of the study will follow a 3+3 dose escalation design to determine the MTD or MFD (based on PK and capsules strength) of antroquinonol in combination with standard dose regimen of nab-paclitaxel and gemcitabine. Two dose levels of antroquinonol given TID are planned based on dose escalation data and capsules strengths. The final number of subjects will be based on the number of dose levels investigated and DLTs occurrence. Up to 12 subjects may be treated in this part of the study. A Safety Monitoring Committee (SMC) will be set up for this study to review DLTs and overall safety data and judge the relevance of events to the dose escalation scheme. […]
Treatments Administered: Compound 1 will be administered in 200- to 300-mg doses (planned dose levels), TID, given in 100 mg capsules (resulting a daily dosage of 600 mg to 900 mg). Additional dose levels may be investigated as determined by the study SMC. […]
Efficacy Assessments: The RECIST 1.1 criteria will be used to assess subject response to treatment by determining ORR, DoR, DCR, PFS, PFS 3 months, and PFS 6 months. […] The OS, OS 6 months, and OS 12 months will also be evaluated.

[2] = tested on: orthotopic PANC-1 human pancreatic cancer xenograft; settings: 30, 60, and 90 mg/kg, cited from earlier work
[3] = tested on: AsPC-1 pancreatic cancer cells; test: Cytotoxicity of test articles (TC50), MTT assay; format: cell-based, Human; settings: Homo sapiens, ASPC1, AsPC-1 cells, concentration at which cell viability was reduced to 50%
Method: The human pancreatic carcinoma cell lines, AsPC-1, PANC-1 and CaPan-2 were seeded 3×10^4 cells per well and cultured in a forty-eight (48) well cell culture dish (growth area 0.95 cm^2 per well). Sixteen (16) hours later, cells were treated Compound 1 alone or Compound 1 with a clinical chemotherapy drug, respectively. After 48 or 72 hours of the treatment, methylthiazoletetrazolium (MTT) assay (supplemental protocol-1) was performed to measure the effect of treatment on the viability of cells during proliferation.
B. Cell Preparation • 1. Remove and discard culture medium. • 2. Briefly rinse the cell layer with 5 mL HBSS. Gently shake and remove the HBSS. • 3. Add 5 mL trypsin-EDTA to 15 cm^2 polystyrene dishes. Incubate 5 mins at 37° C. in a humidified incubator with 95% air/5% CO2 atmosphere. • 4. Add 5 mL of complete growth medium (DMEM medium containing 10% FBS) and aspirate cells by gently pipetting. • 5. Count live cells using the trypan blue exclusion assay (supplemental protocol-2) with a hemocytometer. • 6. For in vitro study, cells will be seeded 3×10^4 cells per well and cultured in a forty-eight (48) wells cell culture dish for sixteen (16) hours until treatment. • 7. Incubate cultures at 37° C.
a. Cytotoxicity of test articles (TC50): AsPC-1 was seeded 3×10^4 cells (counted by Cell counter, LUNA™ Automated Cell Counter or hemocytometer) per well and cultured in a 48 wells cell culture dish. Cells were treated with single article from 400 or 800 μM with serial dilution to 0 μM. After 48 or 72 hours of treated, MTT assay was performed to measure the effect of treatment on the viability of AsPC-1 cells during proliferation. The absorbance at 595 nm was measured using a microplate reader (BioTEK, Synergy™ H1). Article sensitivity curves and TC50 values were calculated using GraphPad Prism 4.0 software.

[4] = 50, 100, 200, 300, 450, and 600 mg-dose levels, given daily for 4 weeks; cited from earlier work

COC1=C(OC)C(O)C(C/C=C(\C)CC/C=C(\C)CCC=C(C)C)C(C)C1=O (stereo not shown) [Compound 1, 4-hydroxy-2,3-dimethoxy-6-methyl-5-(3,7,11-trimethyldodeca-2,6,10-trienyl)cyclohex-2-enone]
patient tumor size after treatment [1]: 84 mm and 39 mm
patient tumor size reduced [1]: 7.6% and 22%
tolerability, body weight loss ([2]; tumor bearing mice): tolerated well
anti-tumor activity (mean tumor volumes and tumor weights vs vehicle control) ([2]; measured 10 days after drug treatment): effective anti-tumor activity
CC50 ([3]; 48 hrs): 58.1 µM
CC50 ([3]; 72 hrs): 24 µM
safety and tolerability [4]: generally safe and well tolerated
